Assay results as given in patent publication US20230141600A1, “IMIDAZOPYRAZINE DERIVATIVES” (priority 2020, published 2023).
Where a name gives a salt, the structure may show the parent alone.

Test system: Acinetobacter baumannii ATCC17978
Assay: 90% growth inhibitory concentration (IC90) determination, antimicrobial susceptibility testing
Format: cell-based
Details: ATCC17978, 90% growth inhibition, Iso-Sensitest broth, OD 600 nm over 16 h, 35±2° C., read-out: ATCC 17978 IC90
Description: Antimicrobial Susceptibility Testing:
90% Growth Inhibitory Concentration (IC90) Determination
The in vitro antimicrobial activity of the compounds was determined according to the following procedure:
The assay used a 10-points Iso-Sensitest broth medium to measure quantitatively the in vitro activity of the compounds against Acinetobacter baumannii ATCC17961 and ATCC17978.
Stock compounds in DMSO were serially twofold diluted (e.g. range from 50 to 0.097 μM final concentration) in 384 wells microtiter plates and inoculated with 49 μl the bacterial suspension in Iso-Sensitest medium to have a final cell concentration of ˜5×10^(5) CFU/ml in a final volume/well of 50 ul/well. Microtiter plates were incubated at 35±2° C.
Bacterial cell growth was determined with the measurement of optical density at λ=600 nm each minutes over a time course of 16 h. Growth inhibition was calculated during the logarithmic growth of the bacterial cells with determination of the concentration inhibiting 50% (IC50) and 90% (IC90) of the growth.
Table 1 provides the 90% growth inhibitory concentrations (IC90) in micromoles per liter of the compounds of present invention obtained against the strain Acinetobacter baumannii ATCC17978.

IC90 | Compound
161 nM | C[N+]1(CCOCCNC(=O)c2ccc(Nc3nccn4c(-c5ccc(OCC#N)c(F)c5F)cnc34)cc2Cl)CCCC1 [Example 46, 2-Chloro-4-[[3-[4-(cyanomethoxy)-2,3-difluoro-phenyl]imidazo[1,2-a]pyrazin-8-yl]amino]-N-[2-[2-(1-methylpyrrolidin-1-ium-1-yl)ethoxy]ethyl]benzamide Formate]
383 nM | COc1ccc(-c2cnc3c(Nc4ccc(C(=O)NCCC[N+](C)(C)C)c(Cl)c4)nccn23)c(F)c1F [Example 47, 3-[[2-Chloro-4-[[3-(2,3-difluoro-4-methoxy-phenyl)imidazo[1,2-a]pyrazin-8-yl]amino]benzoyl]amino]propyl-trimethyl-ammonium Formate]
566 nM | CC[N+](CC)(CC)CCCNC(=O)c1ccc(Nc2nccn3c(-c4ccc(OC)c(F)c4F)cnc23)cc1Cl [Example 48, 3-[[2-Chloro-4-[[3-(2,3-difluoro-4-methoxy-phenyl)imidazo[1,2-a]pyrazin-8-yl]amino]benzoyl]amino]propyl-triethyl-ammonium Formate]
968 nM | CCCC[N+](CCCC)(CCCC)CCCNC(=O)c1ccc(Nc2nccn3c(-c4ccc(OC)c(F)c4F)cnc23)cc1Cl [Example 49, Tributyl-[3-[[2-chloro-4-[[3-(2,3-difluoro-4-methoxy-phenyl)imidazo[1,2-a]pyrazin-8-yl]amino]benzoyl]amino]propyl]ammonium Formate]
394 nM | CCc1cc(Nc2nccn3c(-c4ccc(OC)c(F)c4F)cnc23)ccc1C(=O)NCCOCC[N+](C)(C)CC(=O)O [Example 50, Carboxymethyl-[2-[2-[[4-[[3-(2,3-difluoro-4-methoxy-phenyl)imidazo[1,2-a]pyrazin-8-yl]amino]-2-ethyl-benzoyl]amino]ethoxy]ethyl]-dimethyl-ammonium Formate]
62.8 nM | CCc1cc(Nc2nccn3c(-c4ccc(OC)c(F)c4F)cnc23)ccc1C(=O)NCCOCC[N+](C)(C)CCO [Example 51, 2-[2-[[4-[[3-(2,3-Difluoro-4-methoxy-phenyl)imidazo[1,2-a]pyrazin-8-yl]amino]-2-ethyl-benzoyl]amino]ethoxy]ethyl-(2-hydroxyethyl)-dimethyl-ammonium formate]
38.8 nM | CCc1cc(Nc2nccn3c(-c4ccc(OC)c(F)c4F)cnc23)ccc1C(=O)NCCOCC[N+](C)(C)CC(N)=O [Example 52, (2-Amino-2-oxo-ethyl)-[2-[2-[[4-[[3-(2,3-difluoro-4-methoxy-phenyl)imidazo[1,2-a]pyrazin-8-yl]amino]-2-ethyl-benzoyl]amino]ethoxy]ethyl]-dimethyl-ammonium Formate]
405 nM | CCc1cc(Nc2nccn3c(-c4ccc(OC)c(F)c4F)cnc23)ccc1C(=O)NCCOCC[N+](C)(C)CCCC(=O)O [Example 53, 3-Carboxypropyl-[2-[2-[[4-[[3-(2,3-difluoro-4-methoxy-phenyl)imidazo[1,2-a]pyrazin-8-yl]amino]-2-ethyl-benzoyl]amino]ethoxy]ethyl]-dimethyl-ammonium Formate]
45.2 nM | C[N+](C)(C)CC(=O)N1CCN(C(=O)c2ccc(Nc3nccn4c(-c5ccc(OCC#N)c(F)c5F)cnc34)cc2Cl)CC1 [Example 54, 2-(4-(2-Chloro-4-((3-(4-(cyanomethoxy)-2,3-difluorophenyl)imidazo[1,2-a]pyrazin-8-yl)amino)benzoyl)piperazin-1-yl)-N,N,N-trimethyl-2-oxoethan-1-aminium Formate]

Test system: Acinetobacter baumannii ATCC 17978
Assay: Minimal inhibitory concentration (MIC) determination, broth microdilution (CLSI M07-A10)
Format: cell-based
Details: ATCC17978, lowest concentration for complete growth inhibition, 18-24 hours at 35±2° C., read-out: ATCC 17978 MIC
Description: Minimal Inhibitory Concentration (MIC) and MIC90 Determination:
The MIC of antibacterial compounds against multiple species and strains was determined using the broth microdilution method according to M07-A10 Clinical and Laboratory Standards Institute (CLSI) guidelines (CLSI (2015) Methods for dilution antimicrobial susceptibility tests for bacteria that grow aerobically; Approved Standard, Tenth Edition. CLSI Document M7-A10 (ISBN 1-56238-987-4). Wayne, Pa.: Clinical and Laboratory Standards Institute, 19087, USA), using the appropriate broth medium. In short, the compound plates were prepared by dispensing 100 μl of each stock solution in the first well of a 96 well microtiter plate (MTP) at a concentration 100-fold higher than the final concentration desired in broth. Eleven serial 2-fold dilutions of the highest concentration were made in DMSO for new compounds and in water (or appropriate solution) for reference compounds (CLSI (2017) Performance Standards for Antimicrobial Susceptibility Testing; […] Informational Supplement. CLSI Document M100-S27, CLSI, Wayne, Pa. 19087, USA). 1 μL of each well was transferred in a new MTP, which served as the test plate by subsequent inoculation. This bacterial suspension was prepared from strains that were first sub-cultured on agar plates and incubated for 18-24 hours as appropriate. Following incubation, the inoculum was prepared from isolated colonies and adjusted to 0.5 McFarland turbidity standard (1 to 2×10^8 Colony Forming Units (CFU)/mL) in 0.9% saline. The bacterial suspension was then diluted 1:200 in appropriate sterile medium and within 15 minutes 100 μL/well were dispensed. Negative controls (lack of bacterial cells) and growth control wells (lack of compound) were included in all plates. MTPs were incubated for 18-24 hours at 35±2° C. in ambient air. The MIC value of each compound, expressed as μg/mL, was determined as the lowest concentration required for complete growth inhibition (no visible growth). MIC90 and MIC50 values were defined as the lowest concentration of the antibacterial compound at which 90% and 50% of the strains were inhibited.
Table 3 provides the MIC's of particular compounds of the present invention obtained against the strain Acinetobacter baumannii ATCC 17978, expressed as μg/mL.

Compound | MIC
CCc1cc(Nc2nccn3c(-c4ccc(OC(F)F)c(F)c4F)cnc23)ccc1C(=O)N1CCC(C(=O)N2C[C@@H]3C[C@H]2C[N+]3(C)CC2CNC2)CC1.O=C([O-])C(F)(F)F.O=CO (mixture of isomers) [Example 100, [4-[[3-[4-(Difluoromethoxy)-2,3-difluoro-phenyl]imidazo[1,2-a]pyrazin-8-yl]amino]-2-ethyl-phenyl]-[4-[rac-(1S,4S)-5-(azetidin-3-ylmethyl)-5-methyl-2-aza-5-azoniabicyclo[2.2.1]heptane-2-carbonyl]-1-piperidyl]methanone; formic acid; 2,2,2-trifluoroacetate (Mixed Salt)] | 1.84 µg/mL
CCc1cc(Nc2nccn3c(-c4ccc(Oc5cnn(C)n5)c(F)c4F)cnc23)ccc1C(=O)NCC1CC[N+](C)(CC2CCNC2)CC1.O=C[O-] (stereo not shown) [Example 6, 4-[[3-[2,3-difluoro-4-(2-methyltriazol-4-yl)oxy-phenyl]imidazo[1,2-a]pyrazin-8-yl]amino]-2-ethyl-N-[[1-methyl-1-(pyrrolidin-3-ylmethyl)piperidin-1-ium-4-yl]methyl]benzamide Formate] | 8.57 µg/mL
CCc1cc(Nc2nccn3c(-c4ccc(OC(F)F)c(F)c4F)cnc23)ccc1C(=O)N1CCC(C(=O)NCC2CC[N+](C)(CC3CNC3)C2)CC1.O=C([O-])C(F)(F)F.O=CO (stereo not shown) [Example 98, N-[[1-(Azetidin-3-ylmethyl)-1-methyl-pyrrolidin-1-ium-3-yl]methyl]-1-[4-[[3-[4-(difluoromethoxy)-2,3-difluoro-phenyl]imidazo[1,2-a]pyrazin-8-yl]amino]-2-ethyl-benzoyl]piperidine-4-carboxamide formate/2,2,2-trifluoroacetate (Mixed Salt)] | 0.92 µg/mL
CCc1cc(Nc2nccn3c(-c4ccc(OC(F)F)c(F)c4F)cnc23)ccc1C(=O)N1CCC(C(=O)N2CC3(C2)C[N+](C)(CC2CNC2)C3)CC1.O=C([O-])C(F)(F)F.O=CO [Example 99, [4-[2-(azetidin-3-ylmethyl)-2-methyl-6-aza-2-azoniaspiro[3.3]-6-carbonyl]-1-piperidyl]-[4-[[3-[4-(difluoromethoxy)-2,3-difluoro-phenyl]imidazo[1,2-a]pyrazin-8-yl]amino]-2-ethyl-phenyl]methanone formic acid 2,2,2-trifluoroacetate (Mixed Salt)] | 0.92 µg/mL
CCc1cc(Nc2nccn3c(-c4ccc(OC(F)F)c(F)c4F)cnc23)ccc1C(=O)N[C@@H](C)CNC(=O)C1CC[N+](C)(CC2CNC2)CC1.O=C[O-] (stereo partly drawn) [Example 114, 1-(Azetidin-3-ylmethyl)-N-[(2S)-2-[[4-[[3-[4-(difluoromethoxy)-2,3-difluoro-phenyl]imidazo[1,2-a]pyrazin-8-yl]amino]-2-ethyl-benzoyl]amino]propyl]-1-methyl-piperidin-1-ium-4-carboxamide Formate] | 17.8 µg/mL
CCc1cc(Nc2nccn3c(-c4ccc(OC)c(F)c4F)cnc23)ccc1C(=O)NCC[N+]1(C)CCC(C(N)=O)C1.O=C([O-])C(F)(F)F (stereo not shown) [Example 144, 1-[2-[[4-[[3-(2,3-Difluoro-4-methoxy-phenyl)imidazo[1,2-a]pyrazin-8-yl]amino]-2-ethyl-benzoyl]amino]ethyl]-1-methyl-pyrrolidin-1-ium-3-carboxamide 2,2,2-trifluoroacetate] | 3.62 µg/mL

Same assay, conditions: ATCC17978, read-out: ATCC 17978 MIC

Compound | MIC
CCc1cc(Nc2nccn3c(-c4ccc(OC(F)F)c(F)c4F)cnc23)ccc1C(=O)N1CCC(C(=O)N2CC3CC(C2)[N+]3(C)CC2CNC2)CC1.O=C(O)C(F)(F)F.O=C([O-])C(F)(F)F.O=CO (stereo not shown) [Example 101, [4-[6-(Azetidin-3-ylmethyl)-6-methyl-3-aza-6-azoniabicyclo[3.1.1]heptane-3-carbonyl]-1-piperidyl]-[4-[[3-[4-(difluoromethoxy)-2,3-difluoro-phenyl]imidazo[1,2-a]pyrazin-8-yl]amino]-2-ethyl-phenyl]methanone formate 2,2,2-trifluoroacetate (Mixed Salt)] | 1.84 µg/mL
